What was measured:
DsaD-MfnH protein pair = assay: Analytical-scale H/D exchange with purified DsaD and MfnH; type: biochemical, Streptomyces scopuliridis; Streptomyces drozdowiczii; settings: 5 μM DsaD, 50 μM MfnH (1:10 DsaD:MfnH)
Protocol: FIG. 4. Deuteration of L-Leu using purified DsaD (5 μM) and MfnH (50 μM) using the described procedure for analytical-scale H/D exchange. Results are reported as the average of 2 trials.
(§1) General procedure analytical scale deuteration reactions: α/β deuteration reactions were performed as follows. A 1 mL Eppendorf tube was charged with amino acid (10-20 mM final concentration), Na3PO4 buffer pD 8.4 (50 mM final concentration), PLP (100 μM final concentration), purified enzymes or appropriate lysate and D2O and to the appropriate final volume (typically 50 μL). Reactions were carried out at 37° C. for 8 h and quenched by the addition of 3 volumes of acetonitrile. Precipitated biomolecules were pelleted by centrifugation (16,000×g, 10 min) and samples were processed as described below.
In the original report by Li et al. describing DsaE, a homologous enzyme with 42% sequence identity, MfnH, was disclosed.^29 This homolog could operate with DsaD to catalyze Cβ-epimerization of Ile. Here, we test the ability of MfnH to productively catalyze H/D exchange reactions. We performed reactions with purified MfnH, DsaD (1:10 DsaD:MfnH), and L-Leu under the conditions described for DsaD/E-catalyzed reactions (FIG. 4). […] We also attempted isolation of MfnO, the native BCAT partner of MfnH, but produced only apo-enzyme.

DsaD/E lysates = assay: Analytical-scale H/D exchange with pre-dialyzed DsaD and DsaE lysates; type: biochemical, Streptomyces scopuliridis; settings: lysates pre-dialyzed into D2O—Na3PO4 buffer pD 8.4, 99.9% D
Protocol: FIG. 6. Deuteration of L-Leu under conditions with minimal H2O contamination (99.9% D) using DsaD and DsaE lysates that were pre-dialyzed in 50 mM D2O—Na3PO4 (pD 8.4). Reactions performed using the described procedure for analytical-scale H/D exchange. Results are reported as the average of 3 trials.
as §1
Exchange of DsaD and DsaE into D2O—Na3PO4 buffer system: When necessary, clarified lysates and purified proteins were exchanged into a D2O-based buffer system containing 50 mM Na3PO4 (−) using a Slide-A-Lyzer MINI dialysis device (ThermoFisher) with a 3 KDa cutoff. A maximum of 500 μL of lysate or protein was added to the device and exchanged 3 times into the D2O buffer at 4° C. before setting up reactions.

[1] = molecular target: T1, DsaE with native E. coli BCATs (Escherichia coli, UniProt P0AB80); assay: Analytical-scale H/D exchange with DsaE lysate only; type: biochemical; settings: 5% v/v DsaE lysate, no DsaD
T1 construct: DsaE can utilize native BCATs present at biological concentrations (without overexpression) to perform H/D exchange; made in house; host or cells: Clarified lysate of E. coli BL21(DE3) overexpressing DsaE; the BCAT is endogenous to the host
T1 sequence (P0AB80 2-309 E236D): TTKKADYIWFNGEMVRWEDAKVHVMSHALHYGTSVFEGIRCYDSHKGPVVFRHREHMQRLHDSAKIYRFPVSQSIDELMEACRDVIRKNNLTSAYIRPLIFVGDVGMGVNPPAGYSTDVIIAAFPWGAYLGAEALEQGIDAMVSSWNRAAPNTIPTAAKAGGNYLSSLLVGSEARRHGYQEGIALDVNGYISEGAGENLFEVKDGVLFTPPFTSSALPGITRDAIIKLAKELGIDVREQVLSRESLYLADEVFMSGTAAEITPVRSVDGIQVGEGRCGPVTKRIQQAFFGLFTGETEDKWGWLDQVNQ
T1 sequence (as listed by the source, change not shown): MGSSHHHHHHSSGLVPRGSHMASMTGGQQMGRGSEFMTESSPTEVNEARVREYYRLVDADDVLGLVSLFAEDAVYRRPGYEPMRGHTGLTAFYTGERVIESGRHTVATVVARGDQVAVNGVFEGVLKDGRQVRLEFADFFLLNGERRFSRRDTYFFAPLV
Protocol: (§2) FIG. 7. Deuteration of L-Leu using only DsaE lysate (5% v/v) with minimal H2O contamination (99.9% D). Reactions were performed using the described procedure for analytical-scale H/D exchange. Results are reported as the average of 3 trials.
(§3) In another version, DsaE operates with a BCAT enzyme other than DsaD to effect a Cα/Cβ-exchange. For example, DsaE clarified cell lysates (CCLs) can achieve Cα and Cβ-deuteration without the addition of the aminotransferase DsaD. Instead of relying on DsaD as a partner for catalysis, DsaE promiscuously interacts with native branched-chain amino acid aminotransferases (BCATs) expressed by E. coli (SEQ ID NO: 2) for primary metabolism. No overexpression of BCAT is necessary to induce this activity. We simply overexpressed partner protein DsaE and generated a clarified cell lysate from the resulting E. coli. […] The reaction is as follows:
as §1, with “Precipitated biomolecules were pelleted by centrifugation (16,000×g, 10 min) and samples were processed as described below.” left out

[2] = molecular target: T2, DsaE with native E. coli BCATs (Escherichia coli, UniProt P0AB80, E236D); assay: as above; type: biochemical; settings: 5% v/v DsaE lysate, no DsaD
T2 construct: DsaE can utilize native BCATs present at biological concentrations (without overexpression) to perform H/D exchange; made in house; host or cells: Clarified lysate of E. coli BL21(DE3) overexpressing DsaE; the BCAT is endogenous to the host
T2 sequence (P0AB80 2-309 E236D): as the sequence (P0AB80 2-309 E236D) above
T2 sequence (as listed by the source, stated change not applied): as the sequence (as listed by the source, change not shown) above
Protocol: as §2, §3
as §1, with “Precipitated biomolecules were pelleted by centrifugation (16,000×g, 10 min) and samples were processed as described below.” left out

## CC(C)C[C@H](N)C(=O)O [Leu, leucine]
DsaD-MfnH protein pair
  deuterium labeling at Cβ: 58%
  exchange at Cα: 93%
DsaD/E lysates
  D-incorporation at Cα: > 99%
  D-incorporation at Cβ: 98%
[1]
  deuterium incorporation at Cβ: 70%
[2]
  labeling at Cα: > 95%
